The source of these data is paper PMC10013768, “The efficacy of anti‐proteolytic peptide R7I in intestinal inflammation, function, microbiota, and metabolites by multi‐omics analysis in murine bacterial enteritis” (Bioengineering & Translational Medicine, 2022).

≈ marks a conversion by molar mass, not a printed value. Ends that are not written are not given here.

The subject of one data set is Escherichia coli 25922. Kind of data set: MIC against E. coli 25922 after incubation of the peptide with mouse serum, gastric juice, small intestinal juice or PBS. The class given is cell-based. The settings on record: for MIC after incubation with gastric juice (GAJ), 1h: mouse gastric juice (stomach tissue + PBS pH 2.0, w/w 1:1, supernatant) mixed with peptide v/v 1:1, peptide 1.28 mM, MIC = lowest concentration killing >95% of cells; for MIC after incubation with serum, 1h / MIC after incubation with serum, 4h / MIC after incubation with serum, 8h: mouse serum mixed with peptide v/v 4:1, 1.28 mM; for Effect of the serum environment on antimicrobial activity: mouse serum, 1-8 h incubation, read-out MIC vs E. coli 25922; for MIC after incubation with small intestinal juice (SIJ), 1h: mouse small intestine contents + PBS pH 7.0 (w/w 1:9, supernatant) mixed with peptide v/v 1:1, 1.28 mM; for MIC after incubation in PBS2.0, 1h / MIC after incubation in PBS2.0, 4h / MIC after incubation in PBS2.0, 8h: phosphate-buffered saline pH 2.0, 37°C; for MIC after incubation in PBS7.0, 1h / MIC after incubation in PBS7.0, 4h / MIC after incubation in PBS7.0, 8h: phosphate-buffered saline pH 7.0, 37°C. On the procedure: FIGURE 2 (a) Schematic diagram of the experimental scheme. Red and green arrows indicate the number of oral administrations and corresponding time points, respectively. (b) The experimental group design. (c) R7I MIC changes after incubation with serum, gastric juice, and small intestine fluid against Escherichia coli 25922. Minimum inhibitory concentrations (MICs, μM) were determined as the lowest peptide concentrations that killed greater than 95% of the bacterial cells. A value >64 indicates no detectable antibacterial activity at 64 μM. GAJ, gastric juice; SIJ, small intestinal juice; PBS2.0 and PBS7.0, phosphate‐buffered saline (pH = 2.0 or pH = 7.0); E. coli, Escherichia coli 25922 TEXT PRINTED IN THE PICTURE: (c) R7I + GAJ + E. coli: 1h: 2; 4h: 2; 8h: 2 | (c) R7I + SIJ + E. coli: 1h: 2; 4h: 4; 8h: 4 | (c) R7I + Serum + E. coli: 1h: 2; 4h: 2; 8h: 2 | (c) Melittin + GAJ + E. coli: 1h: >64; 4h: >64; 8h: >64 | (c) Melittin + SIJ + E. coli: 1h: >64; 4h: >64; 8h: >64 | (c) Melittin + Serum + E. coli: 1h: 4; 4h: 8; 8h: 8 | (c) R7I + PBS2.0 + E. coli: 1h: 2; 4h: 2; 8h: 2 | (c) R7I + PBS7.0 + E. coli: 1h: 2; 4h: 2; 8h: 2 | (c) Melittin + PBS2.0 + E. coli: 1h: 2; 4h: 2; 8h: 2 | (c) Melittin + PBS7.0 + E. coli: 1h: 2; 4h: 2; 8h: 2
The C57BL/6 male mice aged 6 weeks were provided by Liaoning Changsheng Biotechnology Co., Ltd., China and euthanized at 10:00 am. The serum was collected and mixed with R7I (v/v = 4:1) to give a final peptide concentration of 1.28 mM. The stomach (cut in half) and the contents of the entire small intestine of the mice were collected and placed in a sterile eppendorf tube. Sterile PBS was added to gastric tissue (w/w = 1:1, pH = 2.0) and small intestine contents (w/w = 1:9, pH = 7.0), and mixed thoroughly by shaking. The mixture was centrifuged to obtain the supernatant as gastric juice and small intestine juice. R7I was dissolved with the corresponding pH PBS. The prepared gastric and small intestine fluids were then mixed separately with R7I (v/v = 1:1) to give a final peptide concentration of 1.28 mM. Melittin was used here as a control. The peptide mixture was incubated in a 37°C incubator for 1, 4 and 8 h. Finally, the minimum inhibitory concentrations (MICs) test was performed to verify peptide activity with Escherichia coli 25922.[18]

The conditions of data set [1]: earlier research; cited from earlier work. An excerpt:
Importantly, compared with other anti‐proteolytic peptides containing unnatural amino acids, R7I was completely composed of natural amino acids and had dramatic resistance to a high concentration of protease hyd ...

Data set [2] deals with pepsin, trypsin, chymotrypsin, and proteinase K. The settings on record: in vitro; cited from earlier work.
Data set [3] deals with E. coli ATCC 25922 bacterial enteritis model in mice. Kind of data set: Bacterial enteritis model: serum D-lactic acid, diamine oxidase, SIgA (ELISA). It is filed as in vivo, C57BL/6 male mice. The settings on record: n = 6. As to the method: C57BL/6 male mice that were 6 weeks old were provided by Liaoning Changsheng Biotechnology Co., Ltd., China. All mice (20.00 ± 2.00 g, 6 weeks old) were randomly divided into 6 groups (n = 12), and they were fed adaptively for 3 days. During the whole experiment, mice can get clean water and a laboratory standard diet ad libitum, under controlled environmental conditions (40%–60% relative humidity, 25 ± 2°C temperature; lighting cycle, 12 h/d). The standard lab diet contained 18% crude protein, 4% crude fat, 5% crude fiber, 8% ash, and 10% moisture.
(§1) The mice were divided into six groups randomly: (1) the control group (E. coli + normal saline); the administration group (E. coli + R7I) is set to three concentration gradients: (2) 20 mg/kg, (3) 30 mg/kg, and (4) 40 mg/kg of body weight; (5) the antibiotic group (E. coli + colistin sulfate), 20 mg/kg of body weight; and (6) the blank group with only normal saline (Figure 2b).
Based on the results of the pre‐experiment, we determined the appropriate concentration of the bacteria. The strain E. coli ATCC 25922 frozen at −20°C was incubated overnight in LB medium (37°C, 220r). The bacterial broth was transferred to a new LB medium at a ratio of 1:100 for 3–5 h to reach the logarithmic growth period. The bacterial precipitate was centrifuged and washed three times with saline to adjust the colony count to 2.0 × 10^9 CFU/ml.
(§2) The blank group was gavaged with 200 μl of saline, and all other groups were gavaged twice with E. coli ATCC 25922 (200 μl) once a day (d1‐2). R7I at different concentrations and colistin sulfate were given twice (12 h intervals) on the d3 and once on d4‐5 by oral administration. Correspondingly, an equal amount of saline was given to the blank and control groups in the same way. On day 6, all mice were euthanized by cervical dislocation under full anesthesia with isoflurane.
To detect the content of diamine oxidase (DAO), D‐lactic acid, and secretory immunoglobulin A (SlgA) in serum, using mouse ELISA kit instruction (Alphabio, Tianjin, China).
A general note: ELISA stands for enzyme-linked immunosorbent assay.

Data set [4] has the same test system. Kind of data set: Bacterial enteritis model: antioxidant function of the liver. The class given is in vivo, C57BL/6 male mice. Particulars: oral R7I (20, 30, 40 mg/kg) or colistin sulfate 20 mg/kg; vs control group; n = 6. As to the method: as §1, §2
Total antioxidant capacity (T‐AOC), superoxide dismutase (SOD), glutathione peroxidase (GSH‐Px), malondialdehyde (MDA), and catalase (CAT) enzyme activities in the liver were determined using commercially available kits (Nanjing Jiancheng Bioengineering Institute, Nanjing, China) according to the manufacturer's instructions.

The test system is the same in data set [5]. Kind of data set: Bacterial enteritis model: serum biochemical indices. Particulars: other doses of R7I (30, 40 mg/kg) and colistin sulfate 20 mg/kg, oral. It is filed as in vivo, C57BL/6 male mice. As to the method: as §1, §2
Serum biochemical indices of alanine aminotransferase (ALT), aspartate aminotransferase (AST), alkaline phosphatase (ALP), total bilirubin (TBIL), cholinesterase (CHE), creatinine (CREA), creatine kinase (CK), urea nitrogen (BUN), lactate dehydrogenase (LDH), total protein (TP), albumin (ALB), and globulin (GLB) were measured by the automatic biochemical analyzer (Roche, Cobus‐Mira‐Plus, Roche Diagnostic System Inc., Basel, Switzerland).

Setting [6] is: mouse gastric juice (PBS pH 2.0, w/w 1:1) mixed with peptide v/v 1:1, 1.28 mM, 37°C, 4 h, then MIC vs E. coli 25922.
[7] abbreviates: 37°C, then MIC vs E. coli 25922.
Where [8] appears, read: 37°C, 4 h, then MIC vs E. coli 25922.
The mark [9] stands for this setting: 37°C, 8 h, then MIC vs E. coli 25922.
Setting [10] is: mouse small intestine contents + PBS pH 7.0 (w/w 1:9) mixed with peptide v/v 1:1, 1.28 mM, 37°C, 8 h, then MIC vs E. coli 25922.
[11] abbreviates: oral R7I 20, 30, 40 mg/kg or colistin sulfate 20 mg/kg, vs control group, p < 0.05 in most treatment groups, best in 20 mg/kg R7I.

Turning to `CC[C@H](C)[C@H](NC(=O)CN)C(=O)NCC(=O)N[C@@H](C)C(=O)N[C@H](C(=O)N[C@@H](CC(C)C)C(=O)N[C@@H](CCCCN)C(=O)N[C@H](C(=O)N[C@@H](CC(C)C)C(=O)N[C@H](C(=O)N[C@H](C(=O)NCC(=O)N[C@@H](CC(C)C)C(=O)N1CCC[C@H]1C(=O)N[C@@H](C)C(=O)N[C@@H](CC(C)C)C(=O)N[C@H](C(=O)N[C@@H](CO)C(=O)N[C@@H](Cc1c[nH]c2ccccc12)C(=O)N[C@H](C(=O)N[C@@H](CCCCN)C(=O)N[C@@H](CCCNC(=N)N)C(=O)N[C@@H](CCCCN)C(=O)N[C@@H](CCCNC(=N)N)C(=O)N[C@@H](CCC(N)=O)C(=O)N[C@@H](CCC(N)=O)C(N)=O)[C@@H](C)CC)[C@@H](C)CC)[C@@H](C)O)[C@@H](C)O)C(C)C)C(C)C` [Melittin], the “MIC after incubation with gastric juice (GAJ), 4h” value against Escherichia coli 25922 (setting [6]) is > 64 µM. Moreover, in the data set with Escherichia coli 25922 (mouse gastric juice (PBS pH 2.0, w/w 1:1) mixed with peptide v/v 1:1, 1.28 mM, 37°C, 8 h, then MIC vs E. coli 25922), the “MIC after incubation with gastric juice (GAJ), 8h” value is > 64 µM. Also, in the data set with Escherichia coli 25922 (setting [7]), the “MIC after incubation with gastric juice (GAJ), 1h” value is > 64 µM; the “MIC after incubation with serum, 1h” value was 4 µM; the “MIC after incubation with small intestinal juice (SIJ), 1h” value was > 64 µM. Further, the “MIC after incubation with serum, 4h” value in the data set on Escherichia coli 25922 (setting [8]) was 8 µM. In addition, in the data set with Escherichia coli 25922 (setting [9]), the “MIC after incubation with serum, 8h” value is 8 µM. For the same compound, the “Effect of the serum environment on antimicrobial activity” value with Escherichia coli 25922 (37°C) was “slightly compromised”. Further, the “MIC after incubation with small intestinal juice (SIJ), 4h” value in the data set with Escherichia coli 25922 (mouse small intestine contents + PBS pH 7.0 (w/w 1:9) mixed with peptide v/v 1:1, 1.28 mM, 37°C, 4 h, then MIC vs E. coli 25922) is > 64 µM. Moreover, the “MIC after incubation with small intestinal juice (SIJ), 8h” value in the data set with Escherichia coli 25922 (setting [10]) was > 64 µM. Moreover, in the data set with Escherichia coli 25922 (then MIC vs E. coli 25922), the “MIC after incubation in PBS2.0, 1h” value was 2 µM (≈ 5.69 µg/mL) and the “MIC after incubation in PBS7.0, 1h” value was found to be 2 µM (≈ 5.69 µg/mL). Further, in the data set with Escherichia coli 25922 (4 h, then MIC vs E. coli 25922), the “MIC after incubation in PBS2.0, 4h” value was determined as 2 µM (≈ 5.69 µg/mL) and the “MIC after incubation in PBS7.0, 4h” value was 2 µM (≈ 5.69 µg/mL). Also, in the data set on Escherichia coli 25922 (8 h, then MIC vs E. coli 25922), the “MIC after incubation in PBS2.0, 8h” value was 2 µM (≈ 5.69 µg/mL) and the “MIC after incubation in PBS7.0, 8h” value was 2 µM (≈ 5.69 µg/mL). In addition, the “Activity after incubation with small intestinal fluid for 1 min” value with Escherichia coli 25922 (small intestinal fluid, 1 min, unused data) was “inactivated”.
On to IRPIIRPIIRPIIRPIIRPIIRPIIRPI-NH2 [R7I], for which the “MIC after incubation with gastric juice (GAJ), 4h” value in the data set with Escherichia coli 25922 (setting [6]) is 2 µM. Besides, in the data set on Escherichia coli 25922 (setting [7]), the “MIC after incubation with gastric juice (GAJ), 1h” value was 2 µM; the “MIC after incubation with serum, 1h” value was 2 µM; the “MIC after incubation with small intestinal juice (SIJ), 1h” value was 2 µM. Moreover, in the data set on Escherichia coli 25922 (setting [8]), the “MIC after incubation with serum, 4h” value amounted to 2 µM. The “MIC after incubation with serum, 8h” value against Escherichia coli 25922 (setting [9]) stood at 2 µM. For the same compound, the “Effect of the serum environment on antimicrobial activity” value in the data set with Escherichia coli 25922 (37°C) is “no negative effect”. Moreover, the “MIC after incubation with small intestinal juice (SIJ), 8h” value with Escherichia coli 25922 (setting [10]) turned out to be 4 µM. Moreover, in the data set on Escherichia coli 25922 (then MIC vs E. coli 25922), the “MIC after incubation in PBS2.0, 1h” value was 2 µM and the “MIC after incubation in PBS7.0, 1h” value stood at 2 µM. In the data set on Escherichia coli 25922 (4 h, then MIC vs E. coli 25922), the “MIC after incubation in PBS2.0, 4h” value worked out at 2 µM and the “MIC after incubation in PBS7.0, 4h” value was found to be 2 µM. In the data set on Escherichia coli 25922 (8 h, then MIC vs E. coli 25922), the “MIC after incubation in PBS2.0, 8h” value was determined as 2 µM and the “MIC after incubation in PBS7.0, 8h” value amounted to 2 µM. The Cytotoxicity entry in data set [1] is “low cytotoxicity”. In addition, the “Resistance to pepsin, trypsin, chymotrypsin, and proteinase K” value in data set [2] is “excellent resistance”.
As for colistin sulfate, in data set [3] (setting [11]), the “Serum D-lactic acid (DLA) level” value is reported as “significantly decreased” and the “Serum diamine oxidase (DAO) level” value is given as “significantly decreased”. The “Serum secreted immunoglobulin A (SlgA) level vs control group” value in data set [3] (partial dose concentrations, oral) is given as “raise secreted immunoglobulin A (SlgA) levels compared to the control group, without statistical significance”. For the same compound, the “MDA levels in the liver” value in data set [4] is listed as “significantly dropped”. In addition, in data set [5], the “Serum CREA level” value is “little effect (or even an increasing trend)” and the “Serum LDH level” value is given as “little effect (or even an increasing trend)”. Further, in data set [5] (p < 0.05), the “Serum AST level” value is “decrease” and the “Serum TBIL level” value is “decrease”. In addition, the “Serum ALT level” value in data set [5] (p > 0.05) is reported as “decrease”.
